Assays:
[1] = test system: sugar beet somatic embryos; assay: Germination of primary somatic embryos on MS medium containing cytokinin; assay type: cell-based, Beta vulgaris
Method: The embryos germinated quickly when transferred to fresh medium either supplemented with phytohormones or not. […] These embedded tissues were manually isolated, separated and transferred into liquid medium (MS medium+BAP 0.2 mg/L). The cultures were maintained at constant agitation (100 rpm) in the dark with biweekly changes of the medium. The white embryogenic tissue masses expanded in two weeks and snow-white fresh outgrowths formed on the surface of older tissues (FIG. 2B). Clumps of white embryogenic tissue masses were divided and transferred to fresh medium for further proliferation. A couple of such passages was enough to generate a large number of white clumps. Part of these tissues was used for the optimization of culture medium.

[2] = test system: embryogenic tissue masses of sugar beet; assay: Repetitive embryogenic culture: optimization of proliferation medium; assay type: cell-based, Beta vulgaris; details: for Effect of media on repetitive embryogenic culture (description) / white embryos, share of tissues / white embryos or white clumps, share of tissues: sucrose 6%, pH 5.7
Method: These embedded tissues were manually isolated, separated and transferred into liquid medium (MS medium+BAP 0.2 mg/L). The cultures were maintained at constant agitation (100 rpm) in the dark with biweekly changes of the medium. […] Clumps of white embryogenic tissue masses were divided and transferred to fresh medium for further proliferation. […] Part of these tissues was used for the optimization of culture medium.
The optimization of proliferation medium was conducted through several stages. Each stage lasted for two weeks.

[3] = test system: friable callus of sugar beet; assay: Somatic embryogenesis from friable callus; assay type: cell-based, Beta vulgaris; details: callus of ACH199 on MS+BAP at 1 mg/L
Method: (§1) For regeneration of embryos, friable callus was transferred to callus regeneration medium (MS medium supplemented with either 1 mg/L of BAP or 1 mg/L of TDZ). The cultures were incubated at 25° C. under a photoperiod of 16 hours of light of cool, white light at an intensity of 30 μmol m^−2s^−1 followed by a 8 hours of darkness. Callus began to grow vigorously, and by the end of the second week, it was possible to distinguish several callus types as well as small embryos (FIG. 1C). Since every seedling was treated as a separate line, quantitative analysis can be applied to the results of the experiments.
After having subcultured callus tissues on regeneration medium, friable callus grew quite fast, expanded vigorously and was almost totally necrotic after a month. At this moment a few white embryogenic structures at different stages of development became visible (FIG. 1D); however, only callus of ACH199 growing on MS+BAP at 1 mg/L produced such structures. The frequency of embryogenesis was very low. Seven separate embryos were found in two out of 40 independent callus lines.

[4] = test system: sugar beet seedling tissues (hypocotyls, cotyledons); assay: Callus induction from sugar beet seedling explants on MS medium with cytokinin; assay type: cell-based, Beta vulgaris
Method: Seeds from three sugar beet lines ACH199 (triploid), ACH31 (triploid) and ACH203 (diploid) were obtained from Crystal and Maribo Beet Seed, Moorehead, Minn. USA. To remove seed covers, Beta vulgaris seeds were soaked in the tap water overnight and then washed under water flow. Seeds were sterilized by sequential treatment with 70% (v/v) ethanol (1 min.), 0.1% (w/v) mercuric chloride (10 min.) and 10% (v/v) household laundry bleach (20 min.) followed by four washes with sterile distilled water. Seeds were then dried on sterile filter paper. All steps were performed in a laminar flow hood.
A series of media which included additional supplements were used for callus induction, embryo proliferation and shoot formation. Phytohormones (BAP, TDZ, NAA, IAA, 2,4-D) were added to the media before autoclaving (120° C. for 20 min.). The basal medium for callus induction and embryogenesis is MS medium comprising MS basal salts, 3% sucrose, 100 mg/L myo-inositol, 0.5 mg/L nicotinic acid, 0.5 mg/L pyridoxine-HCl, 1 mg/L thiamine-HCl and 0.8% (w/v) Difco agar. The basal medium for proliferation of repetitive embryos is MSE (MS basal salts, 100 mg/L myo-inositol, 0.5 mg/L nicotinic acid, 0.5 mg/L pyridoxine-HCl, 1 mg/L thiamine-HCl).
Petri dishes (100 mm×25 mm) containing 25 mL of medium were used for all experiments. Seeds were placed on MS medium, containing either BAP 2 mg/L or TDZ 1 mg/L; plates were sealed and placed in the dark place at 21° C. Cotyledons and hypocotyls (FIG. 1A) were excised from two-week-old seedlings, cut into several pieces, incised and placed on callus induction medium (MS medium supplemented with either 2 mg/L of BAP or 1 mg/l of TDZ). Plates were incubated in the dark at 21° C. Four weeks later, when explants were necrotic and dark brown, colonies of white friable callus appeared on the explant surface (FIG. 1B). Most of the callus formed on hypocotyls. Only a few colonies were found on cotyledons.

[5] = test system: friable callus of sugar beet; assay: Shoot/plant regeneration from friable callus; assay type: cell-based, Beta vulgaris
Method: as §1
All explants of one type from the same line (i.e. only hypocotyls) were able to produce callus, if any did. At the same time, there were only a few cases where callus formed from both cotyledons and hypocotyls of the same seedling (twice in ACH31 and four times in ACH203).

callus = details: Nielson et al. (1995), Roussy et al. (1996); cited from earlier work
[6] = test system: secondary somatic embryos of sugar beet; assay: Regeneration of secondary somatic embryos, adventitious shoot formation; assay type: cell-based, Beta vulgaris
From the text: Somatic embryos produced as described in Example 3 started to germinate as soon as they were transferred to a medium comprising MS basal salts, 3% sucrose and either BAP or TDZ under light. Regeneration began with green or red coloration of an embryo accompanied by formation of primary leaves and roots (FIG. 2C). Since the regeneration medium contained cytokinins, the primary roots were reduced while the shoots developed (FIG. 2D).
To select the best medium for embryo germination, a series of concentrations of BAP and TDZ was tested. The phenotypic effect of applied phytohormones was estimated after three weeks (FIG. 3).

[7] = II. MSE, glutamine 2 mg/L, phytohormone 0.1 mg/L
[8] = IV. MSE, glycine 2 mg/L, phytohormone 0.05 mg/L
[9] = IV. MSE, glycine 2 mg/L, phytohormone 0.1 mg/L
[10] = IV. MSE, glycine 2 mg/L, phytohormone 1 mg/L
[11] = Cultivar ACH31, Cotyledons, MS + BAP 2 mg/L or TDZ 1 mg/L
[12] = Cultivar ACH31, Hypocotyls, MS + BAP 2 mg/L or TDZ 1 mg/L
[13] = Cultivar ACH31, Hypocotyls, MS + BAP 2 mg/L or TDZ 1 mg/L, dark 21° C.
[14] = Cultivar ACH203, Cotyledons, MS + BAP 2 mg/L or TDZ 1 mg/L
[15] = Cultivar ACH203, Hypocotyls, MS + BAP 2 mg/L or TDZ 1 mg/L
[16] = Cultivar ACH31, Hypocotyls, regeneration medium MS + 1 mg/L BAP or TDZ

c1ccc(CNc2ncnc3nc[nH]c23)cc1 [BAP, 6-benzylaminopurine]
phenotype of embryos transferred to MS medium containing BAP or TDZ [1]: formed multiple shoots but also retained white embryogenic tissues | Effect of media on repetitive embryogenic culture (description) [2, 7]: Most tissues are red or dark yellow | white embryos, share of tissues [2, 7]: 10% | Effect of media on repetitive embryogenic culture (description) ([2]; IV. MSE, glycine 2 mg/L, phytohormone 0.01 mg/L): Necrotic tissue with some white embryos; growth is stunted | Effect of media on repetitive embryogenic culture (description) [2, 8]: Light yellow tissues | white embryos or white clumps, share of tissues [2, 8]: 25% | Effect of media on repetitive embryogenic culture (description) [2, 9]: Light yellow tissues | white embryos or white clumps, share of tissues [2, 9]: 25% | Effect of media on repetitive embryogenic culture (description) [2, 10]: Vigorously growing, vitrified tissues | white embryos, share of tissues [2, 10]: 10% | frequency of embryogenesis [3]: very low | independent callus lines in which embryos were found [3]: two out of 40 | separate embryos found ([3]; after a month): Seven | %A: number of lines producing callus/total number of lines × 100 ([4]; Cultivar ACH31, Cotyledons): 1% | # of lines produced callus [4, 11]: 3 | %A: number of lines producing callus/total number of lines × 100 [4, 12]: 20% | # of lines produced callus [4, 13]: 43 | %A: number of lines producing callus/total number of lines × 100 ([4]; Cultivar ACH199, Cotyledons): 2% | # of lines produced callus ([4]; Cultivar ACH199, Cotyledons, MS + BAP 2 mg/L): 4 | %A: number of lines producing callus/total number of lines × 100 ([4]; Cultivar ACH199, Hypocotyls): 15% | # of lines produced callus ([4]; Cultivar ACH199, Hypocotyls, MS + BAP 2 mg/L): 36 | %A: number of lines producing callus/total number of lines × 100 ([4]; Cultivar ACH203, Cotyledons): 5% | # of lines produced callus [4, 14]: 11 | %A: number of lines producing callus/total number of lines × 100 ([4]; Cultivar ACH203, Hypocotyls): 18% | # of lines produced callus [4, 15]: 42 | # of lines produced shoots ([5]; Cultivar ACH31, Cotyledons): 0 | %B: number of lines producing callus and regenerating/total number of lines × 100 ([5]; Cultivar ACH31, Cotyledons): 0% | %B: number of lines producing callus and regenerating/total number of lines × 100 ([5]; Cultivar ACH31, Hypocotyls): 1% | # of lines produced shoots [5, 16]: 1 | # of lines produced shoots ([5]; Cultivar ACH199, Cotyledons): 1 | %B: number of lines producing callus and regenerating/total number of lines × 100 ([5]; Cultivar ACH199, Cotyledons): 0.5% | # of lines produced shoots ([5]; Cultivar ACH199, Hypocotyls): 1 | %B: number of lines producing callus and regenerating/total number of lines × 100 ([5]; Cultivar ACH199, Hypocotyls): 0.5% | # of lines produced shoots ([5]; Cultivar ACH203, Cotyledons): 2 | %B: number of lines producing callus and regenerating/total number of lines × 100 ([5]; Cultivar ACH203, Cotyledons): 0.9% | # of lines produced shoots ([5]; Cultivar ACH203, Hypocotyls): 11 | %B: number of lines producing callus and regenerating/total number of lines × 100 ([5]; Cultivar ACH203, Hypocotyls): 5%

O=C(Nc1ccccc1)Nc1cnns1 [TDZ, thidiazuron]
callus-inducing effectiveness (callus): more effective callus-inducing agent than BAP | phenotype of embryos transferred to MS medium containing BAP or TDZ [1]: formed multiple shoots but also retained white embryogenic tissues | necrosis [2]: did not cause necrosis | tissue proliferation and anthocyanin production [2]: very quick proliferation of tissue and intensified production of anthocyanins | Effect of media on repetitive embryogenic culture (description) [2, 8]: Vigorously expanded dark red culture | white embryos or white clumps, share of tissues [2, 8]: 20% | Effect of media on repetitive embryogenic culture (description) [2, 9]: Vigorously expanded dark red culture | white embryos or white clumps, share of tissues [2, 9]: 20% | Effect of media on repetitive embryogenic culture (description) [2, 10]: Vigorously expanded dark red culture, no white embryos | effect on embryogenic tissues during medium optimization ([2]; indicated by vigorous growth, red coloration, absence of embryogenic tissue masses): induced the regeneration of embryos | production of friable callus and shoots, and plants therefrom: callus induction medium comprising TDZ versus BAP [4]: superior | increase of friable callus formation from hypocotyls, TDZ compared with BAP ([4]; ACH31): two-fold | %A: number of lines producing callus/total number of lines × 100 ([4]; Cultivar ACH31, Cotyledons): 0% | # of lines produced callus [4, 11]: 0 | %A: number of lines producing callus/total number of lines × 100 [4, 12]: 45% | # of lines produced callus [4, 13]: 50 | %A: number of lines producing callus/total number of lines × 100 ([4]; Cultivar ACH203, Cotyledons): 0% | # of lines produced callus [4, 14]: 0 | %A: number of lines producing callus/total number of lines × 100 ([4]; Cultivar ACH203, Hypocotyls): 43% | # of lines produced callus [4, 15]: 100 | callus initiation from cotyledons, TDZ compared with BAP ([4]; cotyledons): no TDZ-related improvements | callus formation and plant regeneration, TDZ compared with BAP ([4]; hypocotyls of cultivar ACH203): provided similar results | rate of callus formation from hypocotyls and plant regeneration from such callus, TDZ compared with BAP ([4]; two out of three cultivars tested): dramatically increased | increase of plant regeneration from these calli, TDZ compared with BAP ([5]; ACH31, hypocotyl callus): nine-fold | # of lines produced shoots ([5]; Cultivar ACH31, Cotyledons): 0 | %B: number of lines producing callus and regenerating/total number of lines × 100 ([5]; Cultivar ACH31, Cotyledons): 0% | %B: number of lines producing callus and regenerating/total number of lines × 100 ([5]; Cultivar ACH31, Hypocotyls): 9% | # of lines produced shoots [5, 16]: 10 | # of lines produced shoots ([5]; Cultivar ACH203, Cotyledons): 0 | %B: number of lines producing callus and regenerating/total number of lines × 100 ([5]; Cultivar ACH203, Cotyledons): 0% | # of lines produced shoots ([5]; Cultivar ACH203, Hypocotyls): 40 | %B: number of lines producing callus and regenerating/total number of lines × 100 ([5]; Cultivar ACH203, Hypocotyls): 17% | adventitious shoot formation ([6]; TDZ at 0.03 mg/L, concentrations tested 0.03, 0.1, 0.3, 1 and 3 mg/l, after three weeks): most effective | inducing the formation of adventitious shoots on Beta vulgaris embryos ([6]; compared with BAP): superior to BAP | regeneration, particularly shoot development on Beta vulgaris embryos ([6]; compared with BAP): superior to BAP | vitrification of tissues ([6]; concentrations higher than 0.03 mg/L): caused vitrification of tissues | vitrification of tissues and adventitious shoots ([6]; low concentrations): did not cause vitrification of tissues while producing more adventitious shoots

— US6555375B1, “Methods for somatic embryo formation and plant regeneration of Beta vulgaris” (priority 2000, dated 2003)
